Values after ≈ are worked out from the molar mass of the structure shown.
Key:
Aurobasidium pollulans = experiment: Antifungal growth inhibition assay; format: cell-based; settings: positive control
Procedure: (§4) The yeast strains Candida albicans (ATCC 10231) and Rhodotrula sp. and the Aurobasidium pollulans mold, were cultivated on potato dextrose agar with 2% glucose at room temperature. Fungal spores were dissolved in potato dextrose broth (Difco Laboratories, USA) and the cell concentration was determined and adjusted after counting in a Bürker chamber. […] The assay plates were incubated in a moist dark chamber at 37 °C. […] Growth inhibition was determined microscopically after 42 h incubation.

Rhodotrula sp. = experiment: Antifungal growth inhibition assay; format: cell-based; settings: positive control
Procedure: as §4

MV-4-11 cells [1] = experiment: Apoptosis assay (annexin V/PI staining, flow cytometry); format: cell-based, human; settings: 26 µM (1 × IC50); 24 h
Procedure: To further investigate the cell death pathway activated by 1, an apoptosis assay was performed and the ability of 1 to induce apoptosis and/or necrosis in MV-4-11 cell line was evaluated by annexin V/PI staining (Figure 5). The cells were divided into 3 different populations: annexin V−/PI− (healthy cells), annexin V+/PI− (apoptotic cells) and annexin V+/PI+ (late apoptotic/necrotic cells). […] However, after 24 h and 48 h of incubation at the highest concentration of compound (104 µM), no increase in apoptotic cells were seen when compared to cells incubated with 52 µM.
MV-4-11 cells were seeded into 24-well plates (Nunclon^TM Delta Surface, Thermo Scientific) at a density of 1 × 10^6 cells/mL supplemented with 26 µM, 52 µM or 104 µM of 1 and incubated for 24 or 48 h at 37 °C an 5% CO2. Apoptotic and necrotic cells were labelled according to manufacturer’s instructions (Alexa Fluor^TM 488 Annexin V/Dead Cell Apoptosis Kit, Invitrogen) and analysed by a CytoFLEX Flow cytometer and CytExpert software (Beckman Coulter).

FLT3 WT = molecular target: T1, FLT3 WT (Homo sapiens, UniProt P36888); experiment: Kinase binding assay (FRET tracer competition); settings: concentrations tested up to 10 μM
T1 construct: purchased ThermoFisher Scientific PV3182
T1 sequence (P36888 564-993 limits assumed): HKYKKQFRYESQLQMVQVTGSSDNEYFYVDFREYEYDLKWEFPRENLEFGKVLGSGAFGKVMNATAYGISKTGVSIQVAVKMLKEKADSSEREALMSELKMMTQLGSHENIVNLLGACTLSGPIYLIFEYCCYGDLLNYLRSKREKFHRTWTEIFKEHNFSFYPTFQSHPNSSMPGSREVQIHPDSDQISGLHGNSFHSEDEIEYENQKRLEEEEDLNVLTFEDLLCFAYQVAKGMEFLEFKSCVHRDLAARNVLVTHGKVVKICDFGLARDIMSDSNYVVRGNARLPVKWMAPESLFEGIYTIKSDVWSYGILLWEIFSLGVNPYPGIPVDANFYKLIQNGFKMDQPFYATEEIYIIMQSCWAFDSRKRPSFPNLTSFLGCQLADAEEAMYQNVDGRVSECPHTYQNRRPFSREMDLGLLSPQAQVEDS
Procedure: (§1) A FRET signal is generated between an Europium-labelled tag, on the FLT3 kinase, and a fluorescent tracer with high binding affinity for the FLT3 active site.
(§2) Anti-GST-Eu-tagged monoclonal antibodies (anti-GST AB) were purchase from Cisbio (PerkinElmer Norge AS, catalogue number 61GSTKLA) and reconstituted in water at a final concentration of 333 nM. White, non-binding, round bottom 384 well microplates (reference number 4513) were purchased from Corning (Corning Inc, Kennebunk, ME, USA). The compounds were serially diluted into DMSO to 12 different concentrations. Each of these compound-containing DMSO solutions was further diluted 33 times in assay buffer A (50 mM HEPES pH 7.5, 10 mM MgCl2, 1 mM ethylene glycol-bis(β-aminoethyl ether)-N,N,N′,N′-tetraacetic acid (EGTA) and 0.01% BRIJ-35) and 5 μL of these solutions were dispensed in triplicates in 384 well plate. […] Fluorescence measurements were made using a EnVision 2104 Multilabel reader, (PerkinElmer, US), excitation wavelength was set to 340 nm and emission was read at both 615 nm (8.5 nm bandwidth) and 665 nm (7.5 nm bandwidth) over […] between excitation and emission measurements.

MDA-MB-468 = experiment: Viability screening, colorimetric MTS assay; format: cell-based; design: key: Active: active compound was defined as ≤50% survival at one of the concentrations; Inactive; settings: MDA-MB-468, breast cancer; screened at 10 and 50 µM; 72 h
Procedure: (§3) All cell lines were purchased from ATCC (Manassa, VA, USA) except MOLM-13 that was purchased from Leibniz Institute DSMZ (Braunschweig, Germany). Viability screening of compounds 1–3 at 10 and 50µM was performed by a colorimetric MTS assay. The cells were seeded into 96-well microtiter plates (Nunclon^TM Delta Surface, Thermo Scientific, Roskilde, Denmark) in RPMI-1640 supplemented with 10% FBS and 10µg/mL Gentamycin (assay media). The adherent cell lines A2058, HaCat and HT29 were seeded in a density of 2000 cells/well, MRC5 were seeded in a density of 4000 cells/well and SK-BR-3 and MDA-MB-468 were seeded in a density of 5000 cells/well. After incubation for 24 h in 37 °C and 5% CO2 the media was discarded and replaced by samples diluted in assay media, negative control (100% cell survival, 100% assay media) and positive control (0% cell survival, 90% assay media supplemented with 10% DMSO). The suspension cell lines MV-4-11 and MOLT-4 were directly seeded in a density of 10,000 cells/well and MOLM-13 and THP-1 were seeded in a density of 20,000 cells/well in assay media supplemented with sample. All samples were added in triplicates. Cells and samples were incubated for a total of 72 h (HepG2 cells were incubated for 24 h) at 37 °C and 5% CO2. Thereafter, 10% CellTiter 96®AQueous One Solution Reagent (G3581, Promega) containing tetrazolium compound [3-(4,5-dimethylthiazol-2-yl)-5-(3-carboxymethoxyphenyl)-2-(4-sulfophenyl)-2H-tetrazolium] and phenazine ethosulfate were added. After 1 h incubation the absorbances was measured at 485 nm with a DTX 880 and viability was calculated.

MOLT-4 = experiment: Viability screening, colorimetric MTS assay; format: cell-based; design: key: Active: active compound was defined as ≤50% survival at one of the concentrations; Inactive; settings: MOLT-4, acute lymphoblastic leukemia; screened at 10 and 50 µM; 72 h
Procedure: as §3

MRC5 = experiment: Viability screening, colorimetric MTS assay; format: cell-based; design: key: Active: active compound was defined as ≤50% survival at one of the concentrations; Inactive; settings: MRC5, lung fibroblasts (non-cancerous); screened at 10 and 50 µM; 72 h
Procedure: as §3

THP-1 = experiment: Viability screening, colorimetric MTS assay; format: cell-based; design: key: Active: active compound was defined as ≤50% survival at one of the concentrations; Inactive; settings: THP-1, acute monocytic leukemia; screened at 10 and 50 µM; 72 h
Procedure: as §3

HepG2 = experiment: Viability screening, colorimetric MTS assay; format: cell-based; design: key: Active: active compound was defined as ≤50% survival at one of the concentrations; Inactive; settings: HepG2, liver hepatocellular carcinoma; screened at 10 and 50 µM; 24 h
Procedure: as §3

SK-BR-3 = experiment: Viability screening, colorimetric MTS assay; format: cell-based; design: key: Active: active compound was defined as ≤50% survival at one of the concentrations; Inactive; settings: SK-BR-3, breast cancer; screened at 10 and 50 µM; 72 h
Procedure: as §3

HaCat = experiment: Viability screening, colorimetric MTS assay; format: cell-based; design: key: Active: active compound was defined as ≤50% survival at one of the concentrations; Inactive; settings: keratinocytes (non-cancerous), screened at 10 and 50 µM, 72 h
Procedure: as §3

HT29 = experiment: Viability screening, colorimetric MTS assay; format: cell-based; design: key: Active: active compound was defined as ≤50% survival at one of the concentrations; Inactive; settings: HT29, colon cancer; screened at 10 and 50 µM; 72 h
Procedure: as §3

MOLM-13 = experiment: Viability screening, colorimetric MTS assay; format: cell-based, human; design: key: Active: active compound was defined as ≤50% survival at one of the concentrations; Inactive; settings: MOLM-13, acute myeloid leukemia; screened at 10 and 50 µM; 72 h
Procedure: as §3

FLT3-ITD mutant = FLT3-ITD mutant (Homo sapiens, UniProt P36888); format: binding; settings: concentrations tested up to 10 μM
Procedure: as §1, §2

A2058 = experiment: Viability screening, human melanoma cell line; format: cell-based; design: key: Active: active compound was defined as ≤50% survival at one of the concentrations; Inactive; settings: screened at 10 and 50 µM, 72 h
Procedure: The flash fractions of P. militaris were assayed for activity against the human melanoma cancer cell line A2058 at 50 µg/mL. […] The flash fractions were also assayed against the human pathogenic bacterial strains Staphylococcus aureus, Enterococcus faecalis, Escherichia coli, Pseudomonas aeruginosa and Streptococcus agalactiae (Gr. B).
as §3

MV-4-11 cells [2] = experiment: Cell cycle analysis (PI staining, flow cytometry); format: cell-based, human; settings: 24 h, compared to control
Procedure: MV-4-11 cells were seeded into 24-well plates (Nunclon^TM Delta Surface, Thermo Scientific) in a density of 1 × 10^6 cells/mL supplemented with 26 µM, 52 µM or 104 µM of 1. The cells were incubated for 24 h and thereafter fixed in ice cold 70% EtOH. After washing the cells were stained with FxCycle™ PI/RNase Staining Solution (Invitrogen, MA, USA) according to manufacturer’s instructions. The cells were analysed by a CytoFLEX Flow cytometer (Beckman Coulter, CA, USA) and cell cycle phase determined in CytExpert software (Beckman Coulter).

MV-4-11 = experiment: Viability screening and IC50 determination, MTS assay; format: cell-based, human; design: key to Activity at ≤50 µM: Active: active compound was defined as ≤50% survival at one of the concentrations; Inactive; settings: for Activity at ≤50 µM: MV-4-11, acute myeloid leukemia, screened at 10 and 50 µM, 72 h
Procedure: as §3

| Compound | Activity at ≤50 µM (MDA-MB-468) | Activity at ≤50 µM (MOLT-4) | Activity at ≤50 µM (MRC5) | Activity at ≤50 µM (THP-1) | Activity at ≤50 µM (HepG2) | Activity at ≤50 µM (SK-BR-3) | Activity at ≤50 µM (HaCat) | Activity at ≤50 µM (HT29) | Activity at ≤50 µM (MOLM-13) | Activity at ≤50 µM (A2058) | Activity at ≤50 µM (MV-4-11) | also measured |
| --- | --- | --- | --- | --- | --- | --- | --- | --- | --- | --- | --- | --- |
| C[C@@H]1[C@H](O)[C@@H](C)/C=C/C=C/C=C/C=C/C=C/C=C/C=C/[C@H](O[C@@H]2O[C@H](C)[C@@H](O)[C@H](N)[C@@H]2O)C[C@@H]2O[C@](O)(C[C@@H](O)C[C@@H](O)[C@H](O)CC[C@@H](O)C[C@@H](O)CC(=O)O[C@H]1C)C[C@H](O)[C@H]2C(=O)O [amphotericin-B] | – | – | – | – | – | – | – | – | – | – | – | MIC (Aurobasidium pollulans): 8.7 µM (≈ 8.04 µg/mL); MIC (Rhodotrula sp.): 8.7 µM (≈ 8.04 µg/mL) |
| COC(=O)[C@@H](CCOc1c(Br)cc(Br)cc1Br)[N+](C)(C)C [compound 1, purpuroine K] | I | I | I ^2 | I | I | I | I | I | Active | I | Active | increase in percentage of apoptotic cells compared to control (MV-4-11 cells [1]): 94%; binding to FLT3 WT active site (FLT3 WT): does not bind; binding to FLT-ITD mutant active site (FLT3-ITD mutant): does not bind; decrease of cells entering G2/M-phase (MV-4-11 cells [2]; 52 µM): 26%; decrease of cells entering the S-phase (MV-4-11 cells [2]; 52 µM): 23%; increase in the number of cells arrested in G0/G1 phase (MV-4-11 cells [2]; 52 µM): 11%; decrease of cells entering G2/M-phase (MV-4-11 cells [2]; 104 µM): 55%; decrease of cells entering the S-phase (MV-4-11 cells [2]; 104 µM): 38%; increase in the number of cells arrested in G0/G1 phase (MV-4-11 cells [2]; 104 µM): 19%; IC50 (MV-4-11; Homo sapiens, MV4-11, MV-4-11 cell line, read-out: IC50 against MV-4-11): 26 ± 1.2 µM |
| COC(=O)[C@@H](CCOc1c(Cl)cc(Br)cc1Br)[N+](C)(C)C [compound 2, purpuroine L] | I | I | I | I | I | I | I | I | I | I | I | – |
| COC(=O)[C@@H](CCOc1c(Cl)cc(Br)cc1Cl)[N+](C)(C)C [compound 3, purpuroine M] | I | I | I | I | I | I | I | I | I | I | I | – |
